We go through eight compounds from US5981219A, “DNA molecules which code for a plastid 2-oxoglutarate/malate translocator” (Hoechst Schering Agrevo GmbH, priority 1919, dated 1999).

Assay [1] concerns the target T1, recombinant 2-oxoglutarate/malate translocator (transformed SP-DC3 cells) (Spinacia oleracea, UniProt Q41364).
T1 construct: made in house; host or cells: Schizosaccharomyces pombe (SP-DC3 cells, plasmid pEVP11-211)
T1 sequence (Q41364 94-569): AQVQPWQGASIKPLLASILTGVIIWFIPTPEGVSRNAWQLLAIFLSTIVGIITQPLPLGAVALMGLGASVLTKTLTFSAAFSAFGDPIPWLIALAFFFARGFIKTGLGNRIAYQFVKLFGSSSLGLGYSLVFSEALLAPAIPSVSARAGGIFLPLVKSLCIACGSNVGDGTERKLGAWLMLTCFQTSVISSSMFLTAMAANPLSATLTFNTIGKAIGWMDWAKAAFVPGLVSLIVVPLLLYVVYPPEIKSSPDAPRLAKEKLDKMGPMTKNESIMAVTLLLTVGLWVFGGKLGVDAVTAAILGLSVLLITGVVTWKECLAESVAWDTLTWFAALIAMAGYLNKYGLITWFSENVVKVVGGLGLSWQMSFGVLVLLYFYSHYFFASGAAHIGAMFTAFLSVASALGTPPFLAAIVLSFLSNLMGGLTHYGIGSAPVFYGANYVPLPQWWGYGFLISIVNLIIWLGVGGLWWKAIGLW
Description: Reconstituted malate transport activity (inhibitor stop method), recombinant protein from transformed SP-DC3 yeast cells in liposomes. The format is biochemical, spinach (expressed in Schizosaccharomyces pombe). The note with it: for transport activity, percentage of activity measured with malate-preloaded liposomes: recombinant protein (transformed SP-DC3 cells), liposomes preloaded with the indicated dicarboxylate, standard deviation in brackets. The protocol:
(§1) Yeast cells transformed with pEVP11-211 plasmid (see FIG. 2A, SP-DC3 cells) were grown in minimum essential medium up to an optical density of 1.0 at 600 nm and harvested by centrifugation at 3,000×g for 5 minutes. The cells were disrupted by vigorously shaking the mixture with 1/2 vol. (based on the cells) glass beads and glass beads and cell debris were separated by centrifugation (600 g for 1 minute). The supernatant was adjusted to a concentration of 0.5% (weight/volume) Triton X-100, an equal volume of liposomes was added to the mixture and the resulting proteoliposomes were immediately frozen in liquid nitrogen. The liposomes were previously prepared by sonification of soy bean phospholipid (20 mg/ml for 10 minutes at 4° C. in the presence of 200 mM tricine NaOH (pH 7.6), 40 mM malate and 60 mM potassium gluconate. After thawing of the proteoliposomes and sonification of the suspension with 10 pulses a 1 s the proteoliposomes were separated from the surrounding medium by size exclusion chromatography on Sephadex G-25 which had been equilibrated with 10 mM tricine NaOH (pH 7.6), 100 mM sodium gluconate and 50 mM potassium gluconate. The eluted proteoliposomes were used for measuring malate transport activity. The measurement was carried out according to the "inhibitor stop" method described by Menzlaff and Flugge (1993, Biochim. Biophys. Acta 1147:13-18).
The malate transport activity in the pEVP11-211 transformants was compared with the malate transport activity of transformants that were merely transformed with the vector pEVP11 without the 211 insert.

Assay [2] deals with T2, 2-oxoglutarate/malate translocator, envelope membrane of spinach chloroplasts (Spinacia oleracea, UniProt Q41364).
T2 construct: it is cleaved during the import process by a specific protease; the mature protein (m) is formed; from tissue; host or cells: spinach chloroplast envelope membranes
T2 sequence (Q41364 94-569): T1 sequence (Q41364 94-569)
Description: Reconstituted malate transport activity, envelope membrane proteins of spinach chloroplasts in liposomes. The format is biochemical. The following applies: for transport activity, percentage of activity measured with malate-preloaded liposomes: envelope membrane of spinach chloroplasts, liposomes preloaded with the indicated dicarboxylate, standard deviation in brackets. The protocol: as §1
Whole yeast protein, envelope membrane proteins and the purified
2oxyoglutarate/malate translocator were reconstituted in liposomes which
were preloaded with the indicated dicarboxylates. The transport activitie
were measured as described by Menzlaff and Flugge (Biochim. Biophys. Acta
1993, 1147: 13-18) and are indicated in the percentage of activity
measured with malatepreloaded liposomes. The standard deviations are
indicated in brackets. The 100% transport activities (nMol/mg # protein
per minute) were 0.8 (recombinant protein), 21.4 (envelope membranes) and
263 (purified translocator protein).

For assay [3], the system named is protein import into intact spinach chloroplasts. Description: Import of in vitro translated translocator precursor protein into intact spinach chloroplasts (SDS-PAGE, fluorography). The following applies: light conditions, 10 μM CCCP (lane 8, FIG. 3). The protocol: FIG. 3: Targeting of the 2-oxoglutarate/malate translocator precursor protein to the chloroplasts and energy-dependent insertion of the mature protein in the inner envelope membrane
SDS polyacrylamide gel electrophoresis was carried out as described in Example 6:
Lane 8: plus decoupling agent (10 μM CCCP) Lane 9: plus 2 mM ATP; protease-pretreated chloro-plasts (30 μg/ml)
The in vitro transcription of plasmid pBSC-211 which was linearized with SmaI was carried out using T3 RNA polymerase according to the instructions of the manufacturer (Pharmacia). Subsequent in vitro translation was carried out in the reticulocyte lysate (Boehringer-Mannheim). The post-ribosomal supernatant was used for protein transports in intact spinach chloroplasts. The experiment was carried out in the dark as well as in the light; the preparation contained import buffer (Flugge et al., 1989, EMBO J. 8:39-46), intact spinach chloroplasts (corresponding to 200 […]) and various additives indicated in the legend to FIG. 3 (entire volume: […]). After 15 minutes at 25° C. the chloroplasts were washed and the envelope membranes […] (Flugge et al., 1989, EMBO J. 8:39-46) […]. They were analyzed in a SDS polyacrylamide gel electrophoresis (Laemmli, 1970, Nature 227:680-685) and subsequent fluorography (Bonner and Laskey, 1974, Eur. J. Biochem. 46:84-88) (FIG. 3). […]

For assay [4], the system named is purified 2-oxoglutarate/malate translocator protein. The following applies: cited from earlier work; for transport activity, percentage of activity measured with malate-preloaded liposomes: liposomes preloaded with the indicated dicarboxylate.

Regarding `O=C(O)CCC(=O)C(=O)O` [2-Oxoglutarate], the entries for the “transport activity, percentage of activity measured with malate-preloaded liposomes” value (“transport activity, percentage” for short) in assay [1] and in assay [2] were 44 (±14) % and 46 (±2) %, respectively.

With `N[C@@H](CC(=O)O)C(=O)O` [Aspartate], the “transport activity, percentage” value in assay [1] was 13 (±4) %; in assay [2], 12 (±1) %.

As for `N#CC(C#N)=NNc1cccc(Cl)c1` [CCCP], the “protein import into chloroplasts” value in assay [3] was “the protein import is blocked”.

As for `O=C(O)/C=C/C(=O)O` [Fumarate], the “transport activity, percentage” value in assay [4] was 65%; in assay [1], 119 (±24) %; in assay [2], 72 (±2) %.

Take `N[C@@H](CCC(=O)O)C(=O)O` [Glutamate]: the “transport activity, percentage” value in assay [1] is recorded as 3 (±1) %; in assay [2] it was 6 (±1) %.

For the compound `O=C(O)CCCC(=O)O` [Glutarate], the “transport activity, percentage” value was 63 (±14) % in assay [1] and 52 (±1) % in assay [2].

`O=C(O)CC(O)C(=O)O` (stereo not drawn) [Malate]: the “transport activity, percentage” value in assay [4], in assay [1] and in assay [2] was 100% each time. Further, the 100% transport activity in assay [4] (malate-preloaded liposomes) was 263 nMol/mg protein per minute; in assay [1] (malate-preloaded liposomes, recombinant protein), 0.8 nMol/mg protein per minute; in assay [2] (malate-preloaded liposomes, envelope membranes), 21.4 nMol/mg protein per minute.

For the compound `O=C(O)CCC(=O)O` [Succinate], the entries for the “transport activity, percentage” value in assay [4], in assay [1] and in assay [2] were 63%, 83 (±12) % and 74 (±2) %, respectively.
